Data as given in patent publication US8309596B2, “Kallikrein 7 modulators” (Novartis AG, priority 2007, dated 2012).
Marks after values point to notes of the source that are not given here.

Columns and labels:
swine = experiment: Anti-inflammatory activity in swine model of allergic contact dermatitis (ACD), DNFB; type: in vivo
Protocol: Eight days before the elicitation of the ACD, […] of 10% 2,4-dinitrofluorobenzene (DNFB, dissolved in DMSO/acetone/olive oil [1/5/3, v/v/v]) are applied epicutaneously in divided volumes onto the basis of both ears and onto both groins (100 μl/site) for sensitization. The challenge reactions are elicited with 15 μl of DNFB (1.0%) on contralateral test sites (each 7 cm^2 in size) of the shaved dorsolateral back. For treatment, the compound of example 11 (=Test compound 2) and the placebo (solvent only) are applied contralaterally to 2 test sites in each animal 0.5 and 6 hours after the challenge. The test sites are clinically examined 24 hours after the challenge when inflammation peaks. The changes are scored on a scale from 0 to 4 (Table XY), allowing a combined maximal score of 12 per designated site. Skin reddening is measured reflectometrically using a* values (see Table 3)

Kallikrein-7 = Kallikrein-7 (Homo sapiens, UniProt P49862); experiment: Kallikrein-7 inhibition, fluorescence-quenched substrate, determination of IC50 values; type: biochemical; details: pH 5.6, 1 hour preincubation, 0.2 nM protease, 2 μM substrate, room temperature
Protocol: The fluorescence-quenched substrate Ac-Glu-Asp(EDANS)-Lys-Pro-Ile-Leu-Phe^Arg-Leu-Gly-Lys(DABCYL)-Glu-NH2 (where ^ indicates the scissile bond, identified by MS analysis) is purchased from Biosyntan (Berlin, Germany) and kept as a 5 mM stock solution in DMSO at −20° C. All other chemicals are of analytical grade.
Enzymatic reactions are conducted in 50 mM sodium citrate buffer at pH 5.6 containing 150 mM NaCl and 0.05% (w/v) CHAPS.
All protein and peptide containing solutions are handled in siliconized tubes (Life Systems Design, Merenschwand, Switzerland). […]
For fluorescence intensity (FI) measurements an Ultra Evolution reader (TECAN, Maennedorf, Switzerland) is used. The instrument is equipped with a combination of a 350 nm (20 nm bandwidth) and a 500 nm (25 nm bandwidth) bandpath filter for fluorescence excitation and emission acquisition, respectively. […]
For the determination of IC50 values the assay is performed at room temperature in 384-well plates. […] The protease concentration in final assay solution is 0.2 nM (according to the enzyme concentrations determined by the Bradford method). […] The effect of the compound on the enzymatic activity is obtained from the linear progress curves and determined from two readings, the first one taken directly after the addition of substrate and the second one after 1 hour. […]

Crl:NMRI mice = experiment: Anti-inflammatory activity in murine model of irritant contact dermatitis (ICD), TPA-induced; type: in vivo; details: for % Inhibition inflammatory swelling [Mean ± SEM values]: 10 μl topically 30 minutes prior to TPA challenge, auricular weight 6 hours after challenge, n 24
Protocol: Method: Crl:NMRI mice are challenged with 10 μl 0.005% phorbol 12-myristat-13-acetate (TPA) on the inner surface of the right ear. The unchallenged left ears serve as normal controls and dermatitis is evaluated from the difference in auricular weight (taken as a measure of inflammatory swelling) 6 hours after the challenge. The animals are treated topically with 10 μl of the test compound 1 or the solvent 30 minutes prior to the challenge. The efficacy of the treatment is calculated as the percentage inhibition of inflammatory auricular swelling relative to animals treated with the vehicle alone.

hairless SKH1 mice = experiment: Test on recovery of skin barrier disruption in mice (TEWL); type: in vivo; details: 10 mM
Protocol: Method: Skin barrier disruption is achieved in groups of hairless SKH1 mice with repeated stripping of the skin with S-Sqame® skin sampling disks. The procedure is completed when transepidermal water loss (TEWL) achieved ≧[…]. TEWL is assessed with a Tewameter TM210 (Courage Khazaka, Cologne, Del.). Immediately after barrier disruption 30 μl of the compound of example 37(=Test compound 1) is applied at 10 mM concentration. Controls animals are treated similarly with the solvent (EtOH/propylene glycol, 3/7 (v/v)) alone. TEWL is measured before, immediately after, and at 3 hrs after barrier disruption. In each animal, the percentage recovery is calculated using the formula: (1−[TEWL at 3 hrs−base line TEWL]/[TEWL immediately after stripping−base line TEWL])×100%.

Sequence of Kallikrein-7 (P49862 30-253): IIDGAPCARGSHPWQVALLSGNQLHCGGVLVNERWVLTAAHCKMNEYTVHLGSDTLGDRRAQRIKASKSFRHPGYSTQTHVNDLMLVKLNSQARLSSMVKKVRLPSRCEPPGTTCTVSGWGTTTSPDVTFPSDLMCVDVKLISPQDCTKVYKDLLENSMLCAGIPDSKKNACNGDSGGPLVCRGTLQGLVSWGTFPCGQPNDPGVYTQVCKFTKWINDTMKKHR

## C#Cc1ccc2cccc(CNC(=O)N3CCC[C@H]3C(=O)NCc3cccnc3)c2c1 [Example 11, (S)-Pyrrolidine-1,2-dicarboxylic acid 1-[(7-ethynyl-naphthalen-1-ylmethyl)-amide] 2-[(pyridin-3-ylmethyl)-amide]]
swine; 1% solution applied 0.5 and 6 hours after challenge, 24 hours after challenge
  A* value (Mean, SD, n: 8), skin reddening measured reflectometrically: 7.7 (1.6)
swine; 1% solution applied 0.5 and 6 hours after challenge, examined 24 hours after challenge, maximal score 12
  Clinical score (Mean, SD, n: 8): 4.1 (1.3)
swine; 1% solution, Mean, SD
  Inhibition vs placebo-treated sites, Clinical score: 42.4 (11.1)
swine; 1% solution, p<0.01
  inhibition of clinical inflammatory changes: 42%

## O=C(NCc1cccnc1)[C@@H]1[C@H]2C[C@H]2CN1C(=O)NCc1cccc2ccc(Cl)cc12 [Example 36, (1S,2S,5R)-3-aza-bicyclo[3.1.0]hexane-2,3-dicarboxylic acid 3-[(7-chloro-naphthalen-1-ylmethyl)-amide] 2-[(pyridin-3-ylmethyl)-amide]]
Kallikrein-7
  IC50: 3 nM

## COc1ccc(CCNC(=O)[C@@H]2[C@H]3C[C@H]3CN2C(=O)NCc2cccc3ccc(Cl)cc23)cc1 [Example 37, (1S,2S,5R)-3-aza-bicycic[3.1.0]hexane-2,3-dicarboxylic acid 3-[(7-chloro-naphthalen-1-ylmethyl)-amide] 2-{[2-(4-methoxy-phenyl)-ethyl]-amide}]
Crl:NMRI mice; 10 mM
  % Inhibition inflammatory swelling [Mean ± SEM values]: 41 ± 5.3***^24%
Crl:NMRI mice; 20 mM concentrations as printed in text
  inhibition of inflammatory swelling: 54-73%
Crl:NMRI mice; 30 mM
  % Inhibition inflammatory swelling [Mean ± SEM values]: 73 ± 7.0***^24%
Hairless SKH1 mice; 30 μl applied immediately after barrier disruption, TEWL at 3 hrs, n: 8 or 12 animals per group
  % Recovery in barrier disruption Mean (SD values): 76 (3.3)*** %
Hairless SKH1 mice; single application, p<0.001
  acceleration of barrier repair compared to repair in mice treated with the solvent alone: 65-76%
